Measured values reported in the NIST ThermoML archive (doi:10.1021/je500205z).
± gives the expanded uncertainty stated by the source. Each block holds one compound with its values, some of them ahead of it.

Tests used:
[1] = Maximal bubble pressure
[2] = an = ratio of the nth substance listed; details: 293.15 K, Maximal bubble pressure

surface tension liquid-gas ([1]; 293.15 K): 66.75 ± 0.77 mN/m
surface tension liquid-gas ([1]; 298.15 K): 63.9 ± 0.74 mN/m
surface tension liquid-gas ([1]; 303.15 K): 61.18 ± 0.71 mN/m
surface tension liquid-gas ([1]; 308.15 K): 58.46 ± 0.68 mN/m
surface tension liquid-gas ([1]; 313.15 K): 55.89 ± 0.65 mN/m
surface tension liquid-gas ([1]; 318.15 K): 53.02 ± 0.62 mN/m
surface tension liquid-gas ([1]; 323.15 K): 50.55 ± 0.59 mN/m
surface tension liquid-gas ([1]; 328.15 K): 48.14 ± 0.57 mN/m
surface tension liquid-gas ([1]; 333.15 K): 45.54 ± 0.54 mN/m
Structure (SMILES): C=Cn1cc[n+](C(C)C(=O)OCC)c1.[Cl-] (configuration not stated)

Structure (SMILES): C=C[n+]1ccn(CCCCCCCCCC)c1.[Br-] [1-decyl-3-ethenylimidazolium bromide]
surface tension liquid-gas ([1]; 293.15 K): 53.48 ± 0.63 mN/m
surface tension liquid-gas ([1]; 298.15 K): 50.63 ± 0.6 mN/m
surface tension liquid-gas ([1]; 303.15 K): 47.76 ± 0.56 mN/m
surface tension liquid-gas ([1]; 308.15 K): 44.56 ± 0.53 mN/m
surface tension liquid-gas ([1]; 313.15 K): 41.8 ± 0.5 mN/m
surface tension liquid-gas ([1]; 318.15 K): 39.03 ± 0.47 mN/m
surface tension liquid-gas ([1]; 323.15 K): 36.2 ± 0.44 mN/m
surface tension liquid-gas ([1]; 328.15 K): 33.77 ± 0.41 mN/m
surface tension liquid-gas ([1]; 333.15 K): 32.04 ± 0.39 mN/m

Structure (SMILES): C=C[n+]1ccn(CCCCCCCCCC)c1.[Br-] [1-decyl-3-ethenylimidazolium bromide] + CC(C)=O
surface tension liquid-gas ([2]; a1 = 0.5403): 23.39 ± 0.38 mN/m

Structure (SMILES): C=C[n+]1ccn(CCCCCCCCCC)c1.[Br-] [1-decyl-3-ethenylimidazolium bromide] + CCO
surface tension liquid-gas ([2]; a1 = 1.255): 22.27 ± 0.36 mN/m

Structure (SMILES): C=C[n+]1ccn(CCCCCCCCCC)c1.[Br-] [1-decyl-3-ethenylimidazolium bromide] + ClC(Cl)Cl
surface tension liquid-gas ([2]; a1 = 0.7667): 27 ± 0.43 mN/m

Structure (SMILES): C=C[n+]1ccn(CCCCCCCCCC)c1.[Br-] [1-decyl-3-ethenylimidazolium bromide] + O
surface tension liquid-gas ([2]; a1 = 3.263): 35.27 ± 0.37 mN/m

Structure (SMILES): C=C[n+]1ccn(CCCCCCCCCC)c1.[Br-] [1-decyl-3-ethenylimidazolium bromide] + c1ccccc1
surface tension liquid-gas ([2]; a1 = 0.1035): 29.08 ± 0.46 mN/m

Structure (SMILES): C=Cn1cc[n+](CCCCCCCC)c1.[Br-] [1-ethenyl-3-octylimidazolium bromide]
surface tension liquid-gas ([1]; 293.15 K): 59.74 ± 0.7 mN/m
surface tension liquid-gas ([1]; 298.15 K): 56.82 ± 0.66 mN/m
surface tension liquid-gas ([1]; 303.15 K): 54.04 ± 0.63 mN/m
surface tension liquid-gas ([1]; 308.15 K): 51.22 ± 0.6 mN/m
surface tension liquid-gas ([1]; 313.15 K): 48.55 ± 0.57 mN/m
surface tension liquid-gas ([1]; 318.15 K): 45.79 ± 0.54 mN/m
surface tension liquid-gas ([1]; 323.15 K): 43.18 ± 0.51 mN/m
surface tension liquid-gas ([1]; 328.15 K): 40.6 ± 0.49 mN/m
surface tension liquid-gas ([1]; 333.15 K): 38.24 ± 0.46 mN/m

Structure (SMILES): C=Cn1cc[n+](CCCCCCCC)c1.[Br-] [1-ethenyl-3-octylimidazolium bromide] + CC(C)=O
surface tension liquid-gas ([2]; a1 = 0.5788): 23.94 ± 0.39 mN/m

Structure (SMILES): C=Cn1cc[n+](CCCCCCCC)c1.[Br-] [1-ethenyl-3-octylimidazolium bromide] + CCO
surface tension liquid-gas ([2]; a1 = 1.497): 23.07 ± 0.37 mN/m

Structure (SMILES): C=Cn1cc[n+](CCCCCCCC)c1.[Br-] [1-ethenyl-3-octylimidazolium bromide] + ClC(Cl)Cl
surface tension liquid-gas ([2]; a1 = 0.6921): 27.79 ± 0.44 mN/m

Structure (SMILES): C=Cn1cc[n+](CCCCCCCC)c1.[Br-] [1-ethenyl-3-octylimidazolium bromide] + O
surface tension liquid-gas ([2]; a1 = 4.059): 38.86 ± 0.4 mN/m

Structure (SMILES): C=Cn1cc[n+](CCCCCCCC)c1.[Br-] [1-ethenyl-3-octylimidazolium bromide] + c1ccccc1
surface tension liquid-gas ([2]; a1 = 0.08467): 29.32 ± 0.46 mN/m

surface tension liquid-gas ([1]; 303.15 K): 67.08 ± 0.78 mN/m
surface tension liquid-gas ([1]; 308.15 K): 64.11 ± 0.74 mN/m
surface tension liquid-gas ([1]; 313.15 K): 61.08 ± 0.71 mN/m
surface tension liquid-gas ([1]; 318.15 K): 58.28 ± 0.68 mN/m
surface tension liquid-gas ([1]; 323.15 K): 55.53 ± 0.65 mN/m
surface tension liquid-gas ([1]; 328.15 K): 53.24 ± 0.62 mN/m
surface tension liquid-gas ([1]; 333.15 K): 50.59 ± 0.59 mN/m
Structure (SMILES): C=Cn1cc[n+](CCCCC)c1.[Br-] [1-ethenyl-3-pentylimidazolium bromide]

Structure (SMILES): C=Cn1cc[n+](CCCCCC)c1.[Br-] [3-hexyl-1-vinyl-1H-imidazol-3-ium bromide]
surface tension liquid-gas ([1]; 293.15 K): 62.29 ± 0.72 mN/m
surface tension liquid-gas ([1]; 298.15 K): 59.52 ± 0.69 mN/m
surface tension liquid-gas ([1]; 303.15 K): 56.81 ± 0.66 mN/m
surface tension liquid-gas ([1]; 308.15 K): 53.95 ± 0.63 mN/m
surface tension liquid-gas ([1]; 313.15 K): 51.15 ± 0.6 mN/m
surface tension liquid-gas ([1]; 318.15 K): 48.44 ± 0.57 mN/m
surface tension liquid-gas ([1]; 323.15 K): 45.67 ± 0.54 mN/m
surface tension liquid-gas ([1]; 328.15 K): 43.01 ± 0.51 mN/m
surface tension liquid-gas ([1]; 333.15 K): 40.4 ± 0.48 mN/m

Structure (SMILES): C=Cn1cc[n+](CCCCCC)c1.[Br-] [3-hexyl-1-vinyl-1H-imidazol-3-ium bromide] + CC(C)=O
surface tension liquid-gas ([2]; a1 = 0.6455): 24.3 ± 0.39 mN/m

Structure (SMILES): C=Cn1cc[n+](CCCCCC)c1.[Br-] [3-hexyl-1-vinyl-1H-imidazol-3-ium bromide] + CCO
surface tension liquid-gas ([2]; a1 = 1.744): 25.16 ± 0.4 mN/m

Structure (SMILES): C=Cn1cc[n+](CCCCCC)c1.[Br-] [3-hexyl-1-vinyl-1H-imidazol-3-ium bromide] + ClC(Cl)Cl
surface tension liquid-gas ([2]; a1 = 0.5682): 27.94 ± 0.44 mN/m

Structure (SMILES): C=Cn1cc[n+](CCCCCC)c1.[Br-] [3-hexyl-1-vinyl-1H-imidazol-3-ium bromide] + O
surface tension liquid-gas ([2]; a1 = 5.388): 46.87 ± 0.46 mN/m

Structure (SMILES): C=Cn1cc[n+](CCCCCC)c1.[Br-] [3-hexyl-1-vinyl-1H-imidazol-3-ium bromide] + c1ccccc1
surface tension liquid-gas ([2]; a1 = 0.02207): 29.6 ± 0.46 mN/m

Structure (SMILES): CC(C)=O [acetone]
surface tension liquid-gas ([1]; 293.15 K): 23.7 ± 0.43 mN/m

surface tension liquid-gas ([1]; 293.15 K): 28.18 ± 0.5 mN/m
Structure (SMILES): c1ccccc1 [benzene]

surface tension liquid-gas ([1]; 293.15 K): 22.27 ± 0.41 mN/m
Structure (SMILES): CCO [ethanol]

surface tension liquid-gas ([1]; 293.15 K): 27.14 ± 0.48 mN/m
Structure (SMILES): ClC(Cl)Cl [trichloromethane]
